Laboratory results as given in EP0252983B1, “SALTS OF N-(VINYLOXIETHYL)DITHIOCARBAMIC ACID, METHOD OF OBTAINING THEREOF AND […] ON THEM” (priority 1985, dated 1987).

Experiments:
Sphaeropsis malorum = experiment: Mycelial growth inhibition on agar (contact activity); type: cell-based; settings: Wirkstoffkonzentration 0,003 %; Würzeagar; Tabelle 7
Description: (§1) Die Prüfungen werden nach dem Verfahren zur Ermittlung der Kontaktaktivität durchgeführt. Man verwendet das in Wasser gelöste Kalium-N-(vinyloxyäthyl)dithiocarbamat, führt es in ein Nährmedium ein und vergießt auf Petri-Schalen. Nach 24 Stunden wird mit Pilzmyzelium nach einem Stichverfahren geimpft. Dann temperiert man die Schalen innerhalb von 5 Tagen bei einer zwischen 24 und 26 °C liegenden Temperatur und mißt den Durchmesser von Pilzkolonien, ermittelt den Prozentsatz der Hemmung des Myzelwachstums (S) ausgehend von Angaben am 5. Tag nach der Abbott-Formel [drawing 13] worin dc für den Durchmesser der Pilzkolonien, de für den Durchmesser von Pilzkolonien in der Schale stehen, wo ein die zu prüfenden Stoffe enthaltendes Medium vorhanden ist. Dieses Verfahren zur Ermittlung der mikrobiologischen Aktivität ist in anderen Beispielen verwendet.
(§2) Als Nährmedium dient Würzeagar.

Larven von Fichtenböcken = experiment: Insecticidal activity, topical application to larvae; type: in vivo, Fichtenböcke; settings: 10%ige Lösung
Source text: Die hohe insektizide Aktivität von Kalium-N-(vinyloxyathyl)dithiocarbamat und Zink-bis-(N-vinyloxyathyl- dithiocarbamat) wurde in Versuchen an Larven von Fichtenböcken nachgewiesen. Geprüft wurden die 10%igen wäßrigen (oder alkoholischen) Lösungen, welche auf die Kopfbrust von Larven aufgebracht wurden. In Versuchen standen je 20 Larven zur Verfügung. Die Versuche wurden dreimal wiederholt. Die Mortalität wurde nach 1, 24 und 48 Stunden ermittelt. Die insektizide Aktivität der erfindungsgemäßen Stoffe ist bedeutend höher als die von Chlorophos.
Die Prüfungen auf insektizide Aktivität werden an Larven von Fichtenböcken durchgeführt. Geprüft werden eine 10%ige wäßrige Lösung von Kalium-N-(vinyloxyäthyl)dithiocarbamat und eine 10%ige alkoholische Lösung von Zink-bis-N-(vinyloxyathyldithiocarbamat). In jedem Versuch stehen je 20 Larven zur Verfügung. Die Mortalität wird nach 1, 24 und 48 Stunden ermittelt. Die zu prüfenden Lösungen werden auf die Kopfbrust von Larven aufgebracht.

Rhizoctonia solani = experiment: Mycelial growth inhibition on agar (contact activity); type: cell-based; settings: Wirkstoffkonzentration 0,003 %; Würzeagar; Tabelle 7
Description: as §1
Die fungizide Aktivität von Zink-bis-(N-vinyloxyäthyldithiocarbamat) gegen reine Kulturen von Pilzen Fusarium moniliforme, Fusarium sambucinum, Aspergillus niger, Rhizoctonia solani, Cladosporium resinae, Cladosporium cladosporioides, Acremonium cowum, Acremonium charticola, Penicillium chrysogenum, Penicillium charlesii Smith, Penicillium funiculosum, Geotrichum candidum Link, Walrotiela subiculesa, Oidium sp., Paecilomyces varioti, Stereum hirsutum wird gemäß Beispiel 8 untersucht.
as §2

[1] = Acute toxicity (LD50) in mice; type: in vivo, weißen Mäusen; settings: perorale Applikation an weißen Mäusen
Micrococcus = experiment: Bactericidal activity on agar (concentration of complete growth inhibition); type: cell-based; settings: % bezogen auf den Wirkstoff; am 5. Tag
Description: (§3) Geprüft wird die bakterizide Aktivität von Kalium-, Natrium-, Zink- und Kupfersalzen der N-(Vinyloxyäthyl)dithiocarbamidsäure gegen Bakterien der Gattungen Bacillus, Micrococcus, Pseudomonas, Escherichia und Xantomonas.
(§4) Man stellt wäßrige Stofflösungen verschiedener Konzentration her, die so berechnet werden, daß die Stoffkonzentration in der Petri-Schale bei der Gabe von 1 ml Lösung in das geschmolzene Nährmedium (45 bis 50 °C) zwischen 0,003 und 25 % (bezogen auf den Wirkstoff) schwankt. Nach 18 bis 24 Stunden bringt man auf die Oberfläche des Nährmediums 0,1 ml wäßrige Suspension eintägiger reiner Kulturen von Bakterien auf und verteilt sie gleichmäßig. In Kontrollschalen verteilt sich 0,1 ml Wasser über die Oberfläche des Nährmediums. Die Inkubation erfolgt bei 37 °C innerhalb von 5 Tagen. Die Wirksamkeit der Stoffe wird nach dem Auftreten des Bakterienwachstums auf der Oberfläche des Nährmediums eingeschätzt. Die Prüfergebnisse sind in der Tabelle 13 dargestellt.

Bacillus = experiment: as above; type: cell-based; settings: % bezogen auf den Wirkstoff; am 5. Tag
Description: as §3, §4

Escherichia = experiment: as above; type: cell-based; settings: % bezogen auf den Wirkstoff; am 5. Tag
Description: as §3, §4

Pseudomonas = experiment: as above; type: cell-based; settings: % bezogen auf den Wirkstoff; am 5. Tag
Description: as §3, §4

Cladosporium resinae = experiment: Mycelial growth inhibition on agar (contact activity); type: cell-based; settings: Würzeagar
Description: as §1
(§5) Die Pilzkulturen werden auf Würzeagar gezüchtet. Ergebnisse, erhalten bei der Prüfung der fungiziden Aktivität gegen reine Kulturen von Mikroorganismen, welche Bioschädigungen hervorrufen, sind in der Tabelle 1 dargestellt.

Penicillium chrysogenum = experiment: as above; type: cell-based; settings: Würzeagar
Description: as §1, §5

Oidium Sp. = experiment: as above; type: cell-based; settings: Würzeagar
Description: as §1, §5

Acremonium cowum = experiment: as above; type: cell-based; settings: Würzeagar
Description: as §1, §5

Walrotiela subiculesa = experiment: as above; type: cell-based; settings: Würzeagar
Description: as §1, §5

Penicillium charlesii = experiment: as above; type: cell-based; settings: Würzeagar
Description: as §1, §5

[2] = tested on: Cladosporium cladosporioides; experiment: as above; type: cell-based; settings: Würzeagar
Description: as §1, §5

Acremonium charticola = experiment: as above; type: cell-based; settings: Würzeagar
Description: as §1, §5

Geotrichum candidum Link = experiment: as above; type: cell-based; settings: Würzeagar
Description: as §1, §5

Fusarium moniliforme = experiment: as above; type: cell-based; settings: Wirkstoffkonzentration 0,003 %; Würzeagar; Tabelle 7
Description: as §1
(§6) Tabelle 2 zeigt die Angaben für die fungizide Aktivität von Kalium-N-(vinyloxyäthyl)dithiocarbamat und bekannten wirksamen Fungiziden Poly arbazin und TMTD. Der zu prüfende Stoff wurde im Laufe der Versuche in Wasser aufgelöst, und die Kulturen wurden auf einem Kartoffel-Glukose-Nährmedium gezüchtet.

Fusarium sambucinum = experiment: as above; type: cell-based; settings: Wirkstoffkonzentration 0,003 %; Würzeagar; Tabelle 7
Description: as §1, §6

Wurzelfäule von Gurken = experiment: Cucumber root rot test in treated non-sterile soil; type: in vivo
Source text: Man nimmt 100 g unsterilen Boden, enthaltend 1 Teil Humus, 1 Teil Rasenboden, 1 Teil Sand, gibt darin ein Präparat, das Zink-bis-(N-vinyloxyäthyldithiocarbamat) ausgehend von 200 kg/ha Wirkstoff enthält.
Das Präparat wird wie folgt hergestellt: Einer gesättigten Lösung des genannten Salzes in Azeton gibt man einige Tropfen Emulgiermittel (hydroxyäthylierte Alkylphenole) zu und verdünnt mit Wasser. Innerhalb von 7 bis 8 Tagen begießt man dann bodenhaltige Gefäße mit Wasser, bis der Boden in einen Zustand gebracht wird, der 60% der vollen Wasseraufnahmekapazität des Feldes beträgt. Nach dieser Zeit erfolgt die Aussaat von Gurkensamen, eingequollen im voraus in einer 0,1%igen KMn04-Lösung innerhalb von 2 Stunden. In jedes Gefäß werden je 10 Samen auf eine Tiefe von 1 bis 1,5 cm gesät. Nach 7 bis 9 Tagen berücksichtigt man die Keimungsfähigkeit von Samen, dann bestimmt man nach 3 Tagen den Befallumfang von Pflanzen durch Wurzelfäule, hervorgerufen durch einen Erregerkomplex. Die Versuche werden viermal wiederholt, als Vergleichsmuster dient Milon. Die Prüfergebnisse zeigt Tabelle 9.

Aspergillus niger = experiment: Mycelial growth inhibition on agar (contact activity); type: cell-based; settings: Wirkstoffkonzentration 0,003 %, Würzeagar
Paecilomyces varioti = experiment: as above; type: cell-based; settings: Wirkstoffkonzentration 0,003 %; Würzeagar; Tabelle 8
Description: as §1

Penicillium funiculosum = experiment: as above; type: cell-based; settings: Wirkstoffkonzentration 0,003 %; Würzeagar; Tabelle 8
Description: as §1

Stereum hirsutum = experiment: as above; type: cell-based; settings: Wirkstoffkonzentration 0,003 %; Würzeagar; Tabelle 8
Description: as §1

[3] = Solubility in water (descriptive); type: physicochemical

For “Zink-bis-(N-vinyloxyäthyldithiocarbamat)”, the Myzelhemmung in % (Sphaeropsis malorum) was 100%, the “Mortalität von Larven der Fichtenböcke” value (Larven von Fichtenböcken; Wirkungsdauer 1 Stunde) was 10% and the “Mortalität von Larven der Fichtenböcke” value (Larven von Fichtenböcken; Wirkungsdauer 24 Stunden) was 88%. For the same substance, the “Mortalität von Larven der Fichtenböcke” value (Larven von Fichtenböcken; Wirkungsdauer 48 Stunden) was 100%, the Myzelhemmung in % (Rhizoctonia solani) was 100% and the LD50 [1] was 1120 ± 266 mg/kg. The “Konzentrationen, welche das Bakterienwachstum völlig (100 %) hemmen” value (from here on “Konzentrationen … (100 %) hemmen”) (Micrococcus) was 0,05%, the “Konzentrationen … (100 %) hemmen” value (Bacillus) was 0,05% and the “Konzentrationen … (100 %) hemmen” value (Escherichia) was 0,05%. For the same substance, the “Konzentrationen … (100 %) hemmen” value (Pseudomonas) was 0,05%, the Myzelhemmung in % (Cladosporium resinae; Präparatkonzentration 0,0015 %) was 37,5% and the Myzelhemmung in % (Cladosporium resinae; Präparatkonzentration 0,003 %) was 100%. For the same substance, the Myzelhemmung in % (Cladosporium resinae; Präparatkonzentration 0,006 %) was 100%, the Myzelhemmung in % (Cladosporium resinae; Präparatkonzentration 0,012 %) was 100% and the Myzelhemmung in % (Penicillium chrysogenum; Präparatkonzentration 0,0015 %) was 10%. It also gave a Myzelhemmung in % (Penicillium chrysogenum; Präparatkonzentration 0,003 %) of 40%, a Myzelhemmung in % (Penicillium chrysogenum; Präparatkonzentration 0,006 %) of 80% and a Myzelhemmung in % (Penicillium chrysogenum; Präparatkonzentration 0,012 %) of 100%. It also gave a Myzelhemmung in % (Oidium Sp.; Präparatkonzentration 0,0015 %) of 80%, a Myzelhemmung in % (Oidium Sp.; Präparatkonzentration 0,003 %) of 100% and a Myzelhemmung in % (Oidium Sp.; Präparatkonzentration 0,006 %) of 100%. The Myzelhemmung in % (Oidium Sp.; Präparatkonzentration 0,012 %) was 100%, the Myzelhemmung in % (Acremonium cowum; Präparatkonzentration 0,0015 %) was 40% and the Myzelhemmung in % (Acremonium cowum; Präparatkonzentration 0,003 %) was 100%. For the same substance, the Myzelhemmung in % (Acremonium cowum; Präparatkonzentration 0,006 %) was 100%, the Myzelhemmung in % (Acremonium cowum; Präparatkonzentration 0,012 %) was 100% and the Myzelhemmung in % (Walrotiela subiculesa; Präparatkonzentration 0,0015 %) was 52%. It also gave a Myzelhemmung in % (Walrotiela subiculesa; Präparatkonzentration 0,003 %) of 100%, a Myzelhemmung in % (Walrotiela subiculesa; Präparatkonzentration 0,006 %) of 100% and a Myzelhemmung in % (Walrotiela subiculesa; Präparatkonzentration 0,012 %) of 100%. It also gave a Myzelhemmung in % (Penicillium charlesii; Präparatkonzentration 0,0015 %) of 90%, a Myzelhemmung in % (Penicillium charlesii; Präparatkonzentration 0,003 %) of 100% and a Myzelhemmung in % (Penicillium charlesii; Präparatkonzentration 0,006 %) of 100%. For the same substance, the Myzelhemmung in % (Penicillium charlesii; Präparatkonzentration 0,012 %) was 100%, the Myzelhemmung in % ([2]; Präparatkonzentration 0,0015 %) was 100% and the Myzelhemmung in % ([2]; Präparatkonzentration 0,003 %) was 100%. For the same substance, the Myzelhemmung in % ([2]; Präparatkonzentration 0,006 %) was 100%, the Myzelhemmung in % ([2]; Präparatkonzentration 0,012 %) was 100% and the Myzelhemmung in % (Acremonium charticola; Präparatkonzentration 0,0015 %) was 50%. The Myzelhemmung in % (Acremonium charticola; Präparatkonzentration 0,003 %) was 100%, the Myzelhemmung in % (Acremonium charticola; Präparatkonzentration 0,006 %) was 100% and the Myzelhemmung in % (Acremonium charticola; Präparatkonzentration 0,012 %) was 100%. For the same substance, the Myzelhemmung in % (Geotrichum candidum Link; Präparatkonzentration 0,0015 %) was 29%, the Myzelhemmung in % (Geotrichum candidum Link; Präparatkonzentration 0,003 %) was 100% and the Myzelhemmung in % (Geotrichum candidum Link; Präparatkonzentration 0,006 %) was 100%. It also gave a Myzelhemmung in % (Geotrichum candidum Link; Präparatkonzentration 0,012 %) of 100%, a Myzelhemmung in % (Fusarium moniliforme) of 100% and a Myzelhemmung in % (Fusarium sambucinum) of 100%. The “Entwicklung von Wurzelschimmel vermindert sich gegenüber Kontrolle” value (Wurzelfäule von Gurken; Aufzucht von Gurken) was “Ilfache”, the “Samenkeimung steigt gegenüber Kontrolle” value (Wurzelfäule von Gurken; Aufzucht von Gurken) was 11% and the “Samenkeimung steigt gegenüber Milon (Vergleichmuster)” value (Wurzelfäule von Gurken; Aufzucht von Gurken) was 15%. For the same substance, the Keimungshäufigkeit in % (Wurzelfäule von Gurken; Gurkensamen, 200 kg/ha Wirkstoff) was 85,1%, the “Entwicklung von Krankheiten in %” value (Wurzelfäule von Gurken; Wurzelfäule von Gurken, 200 kg/ha Wirkstoff) was 4,0% and the Myzelhemmung in % (Aspergillus niger; Tabelle 7) was 90%. For the same substance, the Myzelhemmung in % (Aspergillus niger; Tabelle 8) was 90%, the Myzelhemmung in % (Paecilomyces varioti) was 100% and the Myzelhemmung in % (Penicillium funiculosum) was 100%. For the same substance, the Myzelhemmung in % (Stereum hirsutum) was 100% and the “Löslichkeit in Wasser” value [3] was “wasserunlöslich”.
